{
  "source": "patent US10913757B2",
  "about": "“Hydroxycinnamic derivatives, methods and uses thereof” (UNIVERSIDADE DO PORTO, priority 2016, dated 2021)",
  "assay_type_in_all_cases": "cell-based, human",
  "key": {"HepG2 cells [1]": {"test_system": "HepG2 cells", "test": "Cytotoxicity screening in HepG2 cells, SRB assay", "details": "HepG2, 48 hour", "experimental": "In an embodiment, and as an example, the cytotoxicity of two AntiOxCINs (AntiOxCIN4 and AntiOxCIN6) was assessed using monolayer cultures of human hepatocytes from hepatocellular carcinoma (HepG2) and SRB method (FIG. 8A). […] Remarkably, at concentrations higher than 2.5 μM AntiOxCIN6 inhibited cell proliferation, while at concentrations higher than 100 μM AntiOxCIN4 stimulated cell proliferation.\n(§1) In an embodiment, the cytotoxicity profile of AntiOxCIN4 and AntiOxCIN6 was evaluated in human hepatocellular carcinoma HepG2 cells. Human hepatocellular carcinoma HepG2 cells were cultured in high-glucose medium composed by Dulbecco's modified Eagle's medium (DMEM; D5648) supplemented with sodium pyruvate (0.11 g/L), sodium bicarbonate (1.8 g/L) and 10% fetal bovine serum (FBS) and 1% of antibiotic penicillin-streptomycin 100× solution. Cells were maintained at 37° C. in a humidified incubator with 5% CO2. HepG2 cells were seeded at density of 4×10^4 cells/mL and grown for 24 hours before treatment.\nIn an embodiment the cytotoxicity screening was performed as follows: cells were placed on 48-well plate (2×10^4 cells/500 μL) and then were incubated during 48 hour with AntiOxCIN4 and AntiOxCIN6 concentrations ranging 25 μM to 500 μM or 0.5 μM to 25 μM, respectively. After incubation, sulforhodamine B (SRB) assay was used for cell density determination based on the measurement of cellular protein content. Briefly, after incubation, the medium was removed and wells rinsed with PBS (1×). Cells were fixed by adding 1% acetic acid in 100% methanol for at least 2 hours at −20° C. Later, the fixation solution was discarded and the plates were dried in an oven at 37° C. […] Finally, 200 μl of each supernatant was transferred in 96-well plates and optical density was measured at 540 nm. Data are means±SEM of four independent experiments and the results are expressed as percentage of control (control=100%), which represents the cell density without any treatment in the respective time point."}, "HepG2 cells [2]": {"test_system": "HepG2 cells", "test": "Cellular antioxidant screening in HepG2 cells (FeSO4 or H2O2), SRB assay", "details": "pre-incubated 1 hour, AntiOxCIN4 100 μM, AntiOxCIN6 2.5 μM; for prevention of iron-induced HepG2 cytotoxicity (cell proliferation): 250 μM FeSO4 48 h; for prevention of hydrogen peroxide-induced HepG2 cytotoxicity (cell proliferation): 250 μM H2O2 48 h", "experimental": "In an embodiment, as an example, the antioxidant cellular outline of AntiOxCIN4 and AntiOxCIN6 was assessed using monolayer cultures of human hepatocytes from hepatocellular carcinoma (HepG2) and two different oxidative stressors (250 μM FeSO4 or 250 μM H2O2) (FIG. 8B). […] The higher efficacy of AntiOxCIN4 is in agreement with the data attained from TAC assays (Table 1) and RLM assays (FIG. 4).\nas §1\nIn an embodiment, the cellular antioxidant screening was performed as follows: cells were placed on 48-well plate (2×10^4 cells/500 μL) and pre-incubated with non-toxic concentrations of AntiOxCIN4 (100 μM) or AntiOxCIN6 (2.5 μM) for 1 hour. After the incubation time, cells were exposed to oxidative stress conditions by the addition of 250 μM FeSO4 or 250 μM H2O2 for 48 hours. At the end of incubation time, SRB assay was used for cell density determination as previously described. Data are means±SEM of four independent experiments. The results are expressed as percentage of control (control=100%), which represents the cell density without any treatment in the respective time point."}, "HepG2 cells [3]": {"test_system": "HepG2 cells", "test": "Morphological alterations in HepG2 cells, vital epifluorescence microscopy (TMRM, Hoechst 33342)", "details": "HepG2, 48 h; AntiOxCIN4 100 μM, AntiOxCIN6 2.5 μM, FIG. 8C; methanesulfonate", "experimental": "In an embodiment, as an example, the morphological changes in mitochondrial network and nuclei chromatin condensation of AntiOxCIN4 and AntiOxCIN6 have been determined. HepG2 cells were treated with AntiOxCINs for 48 h and then incubated with the mitochondrialΔΨ-dependent fluorescent probes TMRM and DNA dye Hoechst 33342.\nIn an embodiment, the detection of morphological alterations, including chromatin condensation and mitochondrial polarization and distribution by vital epifluorescence microscopy was performed as follows: cells were placed in 6-well plates with a glass coverslip per well (8×10^4 cells/2 mL) and then treated with non-toxic concentrations of AntiOxCIN4 or AntiOxCIN6 for 48 hours. Thirty minutes prior the end of the incubation time, the mitochondrial network was stained with TMRM (100 nM) while nuclei were stained with Hoechst 33342 (1 μg/mL), to detect apoptotic chromatin condensation, in HBSS (NaCl 137 mM, KCl 5.4 mM, NaHCO3 4.2 mM, Na2HPO4 0.3 mM, KH2PO4 0.4 mM, CaCl2 1.3 mM, MgCl2 0.5 mM, MgSO4 0.6 mM, and D-glucose 5.6 mM, pH 7.4) at 37° C. under dark conditions. Glass coverslips were removed from the wells and placed on glass slides with a drop of mounting medium. The cell images were acquired using a Zeiss LSM 510Meta microscope and analysed with ImageJ software 1.49v. […]"}},
  "note": "“Also recorded” adds a separate entry of the source.",
  "data": [
    {"smiles": "CS(=O)(=O)[O-].O=C(/C=C/c1cc(O)c(O)c(O)c1)NCCCCCC[P+](c1ccccc1)(c1ccccc1)c1ccccc1", "note": "[AntiOxCIN4, (E)-(6-(3-(3,4,5-trihydroxyphenyl)prop-2-enamido)hexyl)triphenylphosphonium methanesulfonate]", "values": [
      {"measurement": "concentration above which cell proliferation was stimulated", "setting": "HepG2 cells [1]; FIG. 8A", "value": "higher than 100 μM"},
      {"measurement": "prevention of iron-induced HepG2 cytotoxicity (cell proliferation)", "setting": "HepG2 cells [2]", "value": "significantly prevented"},
      {"measurement": "prevention of hydrogen peroxide-induced HepG2 cytotoxicity (cell proliferation)", "setting": "HepG2 cells [2]", "value": "significantly prevented"},
      {"measurement": "nuclear morphology and mitochondrial polarization", "setting": "HepG2 cells [3]", "value": "did not induce nuclear morphological changes neither mitochondrial depolarization; also recorded: did not disturb the normal nuclear morphology and mitochondrial polarization"}
    ]},
    {"smiles": "CS(=O)(=O)[O-].O=C(/C=C/c1ccc(O)c(O)c1)NCCCCCCCCCC[P+](c1ccccc1)(c1ccccc1)c1ccccc1", "note": "[AntiOxCIN6, (E)-(10-(3-(3,4-dihydroxyphenyl)acrylamido)decyl)triphenylphosphonium methanesulfonate]", "values": [
      {"measurement": "toxicity toward HepG2 cells (comparison)", "setting": "HepG2 cells [1]", "value": "higher toxicity than AntiOxCIN4"},
      {"measurement": "concentration above which cell proliferation was inhibited", "setting": "HepG2 cells [1]; FIG. 8A", "value": "higher than 2.5 μM"},
      {"measurement": "prevention of iron-induced HepG2 cytotoxicity (cell proliferation)", "setting": "HepG2 cells [2]", "value": "significantly prevented"},
      {"measurement": "prevention of hydrogen peroxide-induced HepG2 cytotoxicity (cell proliferation)", "setting": "HepG2 cells [2]", "value": "significantly prevented"},
      {"measurement": "nuclear morphology and mitochondrial polarization", "setting": "HepG2 cells [3]", "value": "did not induce nuclear morphological changes neither mitochondrial depolarization; also recorded: did not disturb the normal nuclear morphology and mitochondrial polarization"}
    ]}
  ]
}
